Assay results taken from ChEMBL document CHEMBL5537151, “Design, synthesis and bioactivity evaluation of novel fusion peptides and their CPT conjugates inducing effective anti-tumor responses on HER2 positive tumors” (Eur J Med Chem, 2024).
pIC50: −log10 of the molar value. The source made the active and inactive calls. The calls are words filed in the database; no cut-off is given here. Peptide text beside a SMILES is read from it. * marks the point of attachment. X1 = CCC1(C(=O)OCCS*)C(=O)OCc2c1cc1n(c2=O)Cc2cc3ccccc3nc2-1

Key:
[1] = Toxicity in nude mouse xenografted with human SK-BR-3 cells assessed as cell necrosis in spleen at 8 umol/kg, iv administered every 3 days for 14 days by H and E staining based analysis; type: organism-based; settings: in vivo, 336 h, dose 8 µmol/kg, time 14 day
[2] = Toxicity in nude mouse xenografted with human SK-BR-3 cells assessed as change in creatinine level at 8 umol/kg, iv administered every 3 days for 14 days; type: organism-based; settings: in vivo, 336 h, dose 8 µmol/kg, time 14 day
[3] = Toxicity in nude mouse xenografted with human SK-BR-3 cells assessed as cell necrosis in kidney at 8 umol/kg, iv administered every 3 days for 14 days by H and E staining based analysis; type: organism-based; settings: in vivo, 336 h, dose 8 µmol/kg, time 14 day
[4] = Cytotoxicity against HER-negative human MCF-10A cells incubated for 48 hrs by CCK-8 assay; type: toxicity, cell-based
SK-BR-3 [5] = assay: Induction of apoptosis in human SK-BR-3 cells assessed as early apoptotic cells at 1 uM incubated for 24 hrs by Annexin V-FITC/PI staining based flow cytometry analysis (reference value: 2.80%); type: functional
[6] = Drug localization in lysosome of human SK-BR-3 cells assessed as increase in red fluorescence of lysosomal dye at 10 uM incubated for 6 hrs by FITC/Lysotracker red dye based laser confocal microscopic analysis; type: ADME, subcellular; settings: sk-br-3, 6 h
SK-BR-3 [7] = assay: Induction of apoptosis in human SK-BR-3 cells assessed as necrotic cells at 1 uM incubated for 24 hrs by Annexin V-FITC/PI staining based flow cytometry analysis (reference value: 1.49%); type: functional
SK-BR-3 [8] = assay: Induction of apoptosis in human SK-BR-3 cells assessed as downregulation of cIAP1 protein expression at 2.5 to 5 uM incubated for 24 hrs by Western blot analysis; type: functional, cell-based; settings: dose 2.5-5 µM
[9] = Drug release in human SK-BR-3 cells assessed as cathepsin-mediated SMAC polypeptide release at 10 uM incubated for 6 hrs by FITC/Lysotracker red dye based laser confocal microscopic analysis; type: ADME, cell-based; settings: sk-br-3, 6 h
[10] = Toxicity in nude mouse xenografted with human SK-BR-3 cells assessed as change in total protein level at 8 umol/kg, iv administered every 3 days for 14 days; type: organism-based; settings: in vivo, 336 h, dose 8 µmol/kg, time 14 day
SK-BR-3 [11] = assay: Induction of apoptosis in human SK-BR-3 cells assessed as live cells at 1 uM incubated for 24 hrs by Annexin V-FITC/PI staining based flow cytometry analysis (reference value: 94.6%); type: functional
[12] = Toxicity in nude mouse xenografted with human SK-BR-3 cells assessed as cell necrosis in heart at 8 umol/kg, iv administered every 3 days for 14 days by H and E staining based analysis; type: organism-based; settings: in vivo, 336 h, dose 8 µmol/kg, time 14 day
[13] = Toxicity in nude mouse xenografted with human SK-BR-3 cells assessed as cell necrosis in lung at 8 umol/kg, iv administered every 3 days for 14 days by H and E staining based analysis; type: organism-based; settings: in vivo, 336 h, dose 8 µmol/kg, time 14 day
[14] = Toxicity in nude mouse xenografted with human SK-BR-3 cells assessed as inflammatory cell infiltration in spleen at 8 umol/kg, iv administered every 3 days for 14 days by H and E staining based analysis; type: organism-based; settings: in vivo, 336 h, dose 8 µmol/kg, time 14 day
SK-BR-3 [15] = assay: Antitumor activity against human SK-BR-3 cells xenografted in nude mouse assessed as inhibition of tumor growth at 8 umol/kg, iv administered every 3 days for 14 days and measured every 2 days by vernier caliper analysis; type: functional, organism-based; settings: dose 8.0 µmol/kg, time 14.0 day
MDA-MB-231 = assay: cells; settings: Homo sapiens, MDA-MB-231, 48 h
Description: Cytotoxicity against HER-negative human MDA-MB-231 cells incubated for 48 hrs by CCK-8 assay

SK-BR-3 [16] = assay: Induction of apoptosis in human SK-BR-3 cells assessed as caspase-3 activation by measuring increase in green fluorescence incubated for 24 hrs by GreenNuc substrate/Hoechst 33342 staining based fluorescence microscopic analysis; type: functional, cell-based
[17] = Toxicity in nude mouse xenografted with human SK-BR-3 cells assessed as change in alkaline phosphatase level at 8 umol/kg, iv administered every 3 days for 14 days; type: organism-based; settings: in vivo, 336 h, dose 8 µmol/kg, time 14 day
SK-BR-3 [18] = assay: Induction of apoptosis in human SK-BR-3 cells assessed as downregulation of cIAP1 protein expression at 2.5 uM by Western blot analysis; type: functional, cell-based; settings: time 24-48 hrs, TDE = time-dependent effect
[19] = Toxicity in nude mouse xenografted with human SK-BR-3 cells assessed as change in albumin level at 8 umol/kg, iv administered every 3 days for 14 days; type: organism-based; settings: in vivo, 336 h, dose 8 µmol/kg, time 14 day
SK-BR-3 [20] = assay: Induction of apoptosis in human SK-BR-3 cells assessed as late apoptotic cells at 1 uM incubated for 24 hrs by Annexin V-FITC/PI staining based flow cytometry analysis (reference value: 1.11%); type: functional
[21] = Toxicity in nude mouse xenografted with human SK-BR-3 cells assessed as inflammatory cell infiltration in liver at 8 umol/kg, iv administered every 3 days for 14 days by H and E staining based analysis; type: organism-based; settings: in vivo, 336 h, dose 8 µmol/kg, time 14 day
SK-BR-3 [22] = assay: Induction of apoptosis in human SK-BR-3 cells assessed as downregulation of XIAP protein expression at 2.5 uM by Western blot analysis; type: functional, cell-based; settings: time 24-48 hrs, TDE = time-dependent effect
[23] = Toxicity in nude mouse xenografted with human SK-BR-3 cells assessed as change in blood urea nitrogen level at 8 umol/kg, iv administered every 3 days for 14 days; type: organism-based; settings: in vivo, 336 h, dose 8 µmol/kg, time 14 day
[24] = Drug release in human SK-BR-3 cells assessed as cathepsin-mediated camptothecin release by measuring increase in blue fluorescence at 10 uM incubated for 6 hrs by FITC/Lysotracker red dye based laser confocal microscopic analysis; type: ADME, cell-based; settings: sk-br-3, 6 h
SK-OV-3 = assay: cells; settings: Homo sapiens, SK-OV-3, 48 h
Description: Cytotoxicity against HER-positive human SK-OV-3 cells incubated for 48 hrs by CCK-8 assay

[25] = Toxicity in nude mouse xenografted with human SK-BR-3 cells assessed as change in globulin level at 8 umol/kg, iv administered every 3 days for 14 days; type: organism-based; settings: in vivo, 336 h, dose 8 µmol/kg, time 14 day
SK-BR-3 [26] = assay: Induction of apoptosis in human SK-BR-3 cells assessed as increase in ROS level by flow cytometry analysis; type: functional, cell-based
[27] = Toxicity in nude mouse xenografted with human SK-BR-3 cells assessed as inflammatory cell infiltration in lung at 8 umol/kg, iv administered every 3 days for 14 days by H and E staining based analysis; type: organism-based; settings: in vivo, 336 h, dose 8 µmol/kg, time 14 day

## CC[C@H](C)[C@H](NC(=O)[C@@H]1CCCN1C(=O)[C@@H](NC(=O)[C@H](C)N)C(C)C)C(=O)N[C@@H](C)C(=O)N[C@@H](CCC(N)=O)C(=O)N[C@@H](CCCCN)C(=O)N[C@@H](CSSCCOC(=O)C1(CC)C(=O)OCc2c1cc1n(c2=O)Cc2cc3ccccc3nc2-1)C(=O)NCC(=O)N[C@@H](Cc1ccccc1)C(=O)N[C@@H](CC(C)C)C(=O)NCC(=O)N[C@@H](CC(N)=O)C(=O)N1CCC[C@H]1C(=O)N[C@@H](CC(N)=O)C(=O)N[C@@H](Cc1c[nH]c2ccccc12)C(=O)NCC(=O)N[C@@H](CCCNC(=N)N)C(=O)N[C@@H](CO)C(=O)N[C@@H](Cc1c[nH]c2ccccc12)C(=O)N[C@@H](Cc1ccc(O)cc1)C(=O)N[C@@H](CC(N)=O)C(=O)N[C@@H](CCC(N)=O)C(=O)N[C@@H](CCCNC(=N)N)C(=O)N[C@@H](Cc1ccccc1)C(=O)N[C@@H](CCCCN)C(N)=O (some centres undefined) (H-AVPIAQKC(X1)GFLGNPNWGRSWYNQRFK-NH2)
[1]
  Activity: Non-Toxic
[2]
  Activity: Non-Toxic
[3]
  Activity: Non-Toxic
[4]
  IC50 at 48 h: 17.8 µM
SK-BR-3 [5]
  Activity: 26%
[6]
  Drug uptake: Active
SK-BR-3 [7]
  Activity: 3.42%
SK-BR-3 [8]
  Activity: Active
[9]
  Drug metabolism: Metabolite_Detected
[10]
  Activity: Non-Toxic
SK-BR-3 [11]
  Activity: 61.1%
[12]
  Activity: Non-Toxic
[13]
  Activity: Non-Toxic
[14]
  Activity: Non-Toxic
SK-BR-3 [15]
  Activity: Active
MDA-MB-231
  pIC50: 4.73
SK-BR-3 [16]
  Activity: Active
[17]
  Activity: Non-Toxic
SK-BR-3 [18]
  Activity: Tde
[19]
  Activity: Non-Toxic
SK-BR-3 [20]
  Activity: 9.46%
[21]
  Activity: Non-Toxic
SK-BR-3 [22]
  Activity: Tde
[23]
  Activity: Non-Toxic
[24]
  Drug metabolism: Metabolite_Detected
SK-OV-3
  pIC50: 5.60
[25]
  Activity: Non-Toxic
SK-BR-3 [26]
  Activity: Active
[27]
  Activity: Non-Toxic
